# From PMC6399515 (Insect Biochemistry and Molecular Biology, 2016)
# Experiments:
# CYP6P4 = target: T1, CYP6P4 (Anopheles gambiae, UniProt Q7QCY8)
# T1 sequence (Q7QCY8 1-506): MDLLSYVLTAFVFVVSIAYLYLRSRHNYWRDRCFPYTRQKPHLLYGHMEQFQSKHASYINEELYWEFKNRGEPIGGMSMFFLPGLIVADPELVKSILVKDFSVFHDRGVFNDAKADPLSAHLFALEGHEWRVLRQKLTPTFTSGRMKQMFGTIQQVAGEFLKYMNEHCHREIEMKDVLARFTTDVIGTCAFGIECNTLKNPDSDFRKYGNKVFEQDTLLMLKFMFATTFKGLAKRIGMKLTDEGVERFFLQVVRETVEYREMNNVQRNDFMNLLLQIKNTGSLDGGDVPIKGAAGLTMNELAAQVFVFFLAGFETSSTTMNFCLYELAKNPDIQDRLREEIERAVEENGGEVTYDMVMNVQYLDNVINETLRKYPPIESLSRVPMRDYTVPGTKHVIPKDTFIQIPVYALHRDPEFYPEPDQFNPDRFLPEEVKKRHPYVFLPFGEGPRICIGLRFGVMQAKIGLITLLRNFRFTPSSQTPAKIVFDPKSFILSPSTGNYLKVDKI
# T1 sequence (Q86QH5 1-679 partner): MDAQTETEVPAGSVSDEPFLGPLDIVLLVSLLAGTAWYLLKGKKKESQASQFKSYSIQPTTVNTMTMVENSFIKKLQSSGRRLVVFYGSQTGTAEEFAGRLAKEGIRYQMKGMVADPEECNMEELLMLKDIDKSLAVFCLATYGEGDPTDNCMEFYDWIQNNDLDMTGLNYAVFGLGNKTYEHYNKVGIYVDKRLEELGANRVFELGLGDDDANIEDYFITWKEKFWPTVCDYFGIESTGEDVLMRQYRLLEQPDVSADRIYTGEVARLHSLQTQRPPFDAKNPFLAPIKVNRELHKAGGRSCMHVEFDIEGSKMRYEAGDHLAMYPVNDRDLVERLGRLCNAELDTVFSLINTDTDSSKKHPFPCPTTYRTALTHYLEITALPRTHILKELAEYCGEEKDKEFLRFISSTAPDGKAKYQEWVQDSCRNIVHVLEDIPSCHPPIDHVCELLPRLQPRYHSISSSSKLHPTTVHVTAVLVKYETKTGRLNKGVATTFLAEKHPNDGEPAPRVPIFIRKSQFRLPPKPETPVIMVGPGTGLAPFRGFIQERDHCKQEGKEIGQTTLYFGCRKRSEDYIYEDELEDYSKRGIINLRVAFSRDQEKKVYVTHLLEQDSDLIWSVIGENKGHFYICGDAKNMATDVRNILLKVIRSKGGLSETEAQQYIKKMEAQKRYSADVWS
# T1 sequence (Q86QH4 1-128 partner): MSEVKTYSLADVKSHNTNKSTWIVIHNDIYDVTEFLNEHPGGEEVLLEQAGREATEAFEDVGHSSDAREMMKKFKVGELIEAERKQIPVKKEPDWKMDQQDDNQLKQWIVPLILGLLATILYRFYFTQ
# CYP6M2 = CYP6M2 (Anopheles gambiae, UniProt Q7Q449)
# CYP6P3 = target: T2, CYP6P3 (Anopheles gambiae, UniProt Q8T632); assay: biochemical
# T2 sequence (Q8T632 1-509): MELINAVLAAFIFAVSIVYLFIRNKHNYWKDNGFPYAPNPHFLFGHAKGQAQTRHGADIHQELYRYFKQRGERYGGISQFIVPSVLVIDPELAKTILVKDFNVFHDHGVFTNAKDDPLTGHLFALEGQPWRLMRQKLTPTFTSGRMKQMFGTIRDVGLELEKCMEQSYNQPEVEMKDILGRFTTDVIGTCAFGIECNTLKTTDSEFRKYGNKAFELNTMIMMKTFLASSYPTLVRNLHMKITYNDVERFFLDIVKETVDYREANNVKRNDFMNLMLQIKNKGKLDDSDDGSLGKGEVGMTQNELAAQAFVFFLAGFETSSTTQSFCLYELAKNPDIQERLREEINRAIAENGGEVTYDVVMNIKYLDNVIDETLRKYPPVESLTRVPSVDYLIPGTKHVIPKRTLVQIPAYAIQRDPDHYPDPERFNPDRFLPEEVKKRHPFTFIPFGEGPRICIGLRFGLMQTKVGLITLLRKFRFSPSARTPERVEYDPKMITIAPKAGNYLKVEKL
# T2 sequence (Q86QH5 1-679 partner): T1 sequence (Q86QH5 1-679 partner)
# T2 sequence (Q86QH4 1-128 partner): T1 sequence (Q86QH4 1-128 partner)
# CYP6P2 = target: T3, CYP6P2 (Anopheles gambiae, UniProt Q8T629, V81I); assay: biochemical
# T3 sequence (Q8T629 1-507 V81I): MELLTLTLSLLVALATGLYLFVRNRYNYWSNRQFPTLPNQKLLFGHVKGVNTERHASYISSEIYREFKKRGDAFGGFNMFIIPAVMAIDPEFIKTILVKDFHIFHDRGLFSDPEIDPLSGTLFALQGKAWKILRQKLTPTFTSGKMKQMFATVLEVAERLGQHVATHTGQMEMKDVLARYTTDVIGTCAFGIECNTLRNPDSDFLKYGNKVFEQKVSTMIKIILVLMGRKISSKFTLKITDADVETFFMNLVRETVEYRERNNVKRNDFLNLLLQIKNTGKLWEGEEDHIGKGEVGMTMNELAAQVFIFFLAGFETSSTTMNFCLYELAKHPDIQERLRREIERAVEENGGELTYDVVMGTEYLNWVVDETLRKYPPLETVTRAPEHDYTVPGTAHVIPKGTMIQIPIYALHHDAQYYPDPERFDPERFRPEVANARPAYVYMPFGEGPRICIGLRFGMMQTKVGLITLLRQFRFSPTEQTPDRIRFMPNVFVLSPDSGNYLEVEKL
# T3 sequence (Q7QFI3 1-587 partner): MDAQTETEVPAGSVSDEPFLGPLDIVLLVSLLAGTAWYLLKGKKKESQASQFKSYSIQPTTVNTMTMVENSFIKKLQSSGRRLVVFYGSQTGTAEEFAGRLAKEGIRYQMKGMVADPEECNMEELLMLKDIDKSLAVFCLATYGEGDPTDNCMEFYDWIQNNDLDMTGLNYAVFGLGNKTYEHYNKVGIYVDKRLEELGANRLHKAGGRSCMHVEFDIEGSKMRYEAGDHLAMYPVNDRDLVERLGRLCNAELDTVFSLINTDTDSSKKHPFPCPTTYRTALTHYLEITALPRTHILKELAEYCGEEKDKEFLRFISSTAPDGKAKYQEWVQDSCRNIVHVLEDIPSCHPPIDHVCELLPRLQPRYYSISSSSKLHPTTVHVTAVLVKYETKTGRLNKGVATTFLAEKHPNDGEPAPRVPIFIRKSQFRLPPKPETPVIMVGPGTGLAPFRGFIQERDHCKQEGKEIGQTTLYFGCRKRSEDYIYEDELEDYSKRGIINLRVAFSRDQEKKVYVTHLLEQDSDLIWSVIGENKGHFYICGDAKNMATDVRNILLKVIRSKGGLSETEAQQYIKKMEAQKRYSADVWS
# T3 sequence (Q86QH4 1-128 partner): T1 sequence (Q86QH4 1-128 partner)
# Chain of CYP6M2 (Q7Q449 1-499, one chain of several): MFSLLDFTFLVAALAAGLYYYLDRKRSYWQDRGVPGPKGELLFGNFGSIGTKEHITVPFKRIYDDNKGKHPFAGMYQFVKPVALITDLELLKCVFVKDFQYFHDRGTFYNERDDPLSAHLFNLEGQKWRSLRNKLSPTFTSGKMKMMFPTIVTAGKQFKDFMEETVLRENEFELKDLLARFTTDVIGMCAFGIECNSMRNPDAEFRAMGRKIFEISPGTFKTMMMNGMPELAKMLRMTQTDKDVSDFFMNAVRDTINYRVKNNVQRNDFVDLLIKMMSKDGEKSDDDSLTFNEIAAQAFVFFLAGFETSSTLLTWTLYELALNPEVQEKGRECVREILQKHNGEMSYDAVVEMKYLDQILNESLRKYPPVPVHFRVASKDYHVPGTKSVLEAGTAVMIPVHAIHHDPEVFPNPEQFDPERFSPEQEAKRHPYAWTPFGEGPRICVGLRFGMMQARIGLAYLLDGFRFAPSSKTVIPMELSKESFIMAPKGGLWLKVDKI
Structure (SMILES),Inhibition ratio (%): reduction of PPF depletion caused by PBO (CYP6P4) [%],Inhibition ratio (%): reduction of PPF depletion caused by PBO (CYP6M2) [%],Inhibition ratio (%): reduction of PPF depletion caused by PBO (CYP6P5) [%],IC50 (CYP6P3) [µM],IC50 (CYP6P2; IC50 of DEF metabolism) [µM],"% PPF depletion + PBO (CYP6P4; Anopheles gambiae, pH 7.4) [%]","% PPF depletion −PBO (CYP6P4; Anopheles gambiae, pH 7.4) [%]","% PPF depletion + PBO (CYP6M2; Anopheles gambiae, pH 7.4) [%]","% PPF depletion −PBO (CYP6M2; Anopheles gambiae, pH 7.4) [%]","% PPF depletion + PBO (CYP6P5; Anopheles gambiae, pH 7.4) [%]","% PPF depletion −PBO (CYP6P5; Anopheles gambiae, pH 7.4) [%]",IC50 (CYP6P2; category of inhibition of DEF metabolism) [µM]
"CCCCOCCOCCOCc1cc2c(cc1CCC)OCO2 [PBO, piperonyl butoxide]",94.6,95.3,95.4,,,,,,,,,
"CC1(C)C(C=C(Cl)Cl)C1C(=O)OCc1cccc(Oc2ccccc2)c1 (mixture of isomers) [Permethrin, 3-phenoxybenzyl (1R,S)-cis,trans-3-(2,2-dichlorovinyl)-2,2-dimethylcyclopropanecarboxylate]",,,,6.77,8.61,,,,,,,
"CC(COc1ccc(Oc2ccccc2)cc1)Oc1ccccn1 (centres unmarked) [PPF, pyriproxyfen]",,,,15.8,9.95,4.44 ± 1.99,81.63 ± 0.63,1.44 ± 0.67,30.93 ± 4.65,2.40 ± 2.01,39.96 ± 1.04,1 to 10
